Laboratory results as given in article PMC9229165, “In Vitro Anticancer Activity Screening of Novel Fused Thiophene Derivatives as VEGFR-2/AKT Dual Inhibitors and Apoptosis Inducers” (Pharmaceuticals, 2022).
“And” between values parts separate entries of the source, which are not always exact repeats. Equal values may be shown once. Read-outs that look alike come from different tables or passages of the source.

Tests used:
HepG2 cells [1] = assay: MTT antiproliferative assay on HepG2; format: cell-based; details: mean ± S.D. (n = 3), read-out: Cytotoxicity in IC50, HepG2
Protocol: (§1) The antiproliferative activity of the thiophene compounds 3a–g, 4a–c, 6a, and 7a–d was evaluated by an in vitro MTT colorimetric assay on two oncogenic cell lines: liver (HepG2) and prostate (PC-3).
(§2) All cell lines (HepG2, PC-3, and nontumorigenic WI38) were supplied from VACSERA (Cairo, Egypt), cultured in DMEM (Invitrogen/Life Technologies, Waltham, MA, USA) at a density of 1.2–1.8 × 10,000 cells/well in a volume of 100 µL of the growth medium, and then incubated for 24 h, and an MTT assay was done as reported by.

HepG2 cells [2] = assay: Flow cytometric cell cycle analysis; format: cell-based; details: HepG2, 48 h, at IC50
Protocol: AKT-1 is known for its downstream activation of several proteins involved in cell proliferation and apoptosis evasion. In addition, it is reported to be involved in G1–S checkpoint transition and proliferation.
(§3) Analyzing the DNA content in the cell cycle phases by flow cytometry was conducted using FACSCalibur (Becton Dickinson, Franklin Lakes, NJ, USA) following the manufacturer’s manual. The cell cycle analysis procedures were as reported by on HepG2 cells after their treatment with the most promising derivatives for 48 h. Further assessment of the proapoptotic effect was determined by the Annexin V-FITC/PI apoptosis detection kit (Catalog # K101-25, BD Biosciences, San Diego, CA, USA).

AKT-1 [3] = target: T1, AKT-1 (Homo sapiens, UniProt P31749); assay: Akt kinase activity assay kit on cell lysate; format: biochemical; details: LY2780301 as reference
Excerpt: (§5) The outcomes were expressed as IC50 values (mean standard deviation) calculated from the dose–response curves and their linear regression equations.

VEGFR-2 [4] = target: T2, VEGFR-2 (Homo sapiens, UniProt P35968); assay: VEGFR2 (KDR) kinase assay kit; format: biochemical; parameters: purchased BPS Bioscience 40325; details: read-out: VEGFR-2 kinase inhibitory activity IC50
Excerpt: as §5

HepG2 cells [5] = assay: Annexin V-FITC/PI apoptosis detection; format: cell-based; details: HepG2, 48 h
Protocol: Annexin V/PI staining with flow cytometric analysis was adapted to measure early and late apoptotic cells and necrotic cells as presented in Table 3 and Figure 6.
as §3

AKT-1 [6] = target: T1, AKT-1; assay: Phospho-AKT1 (Ser473) cell-based phosphorylation ELISA in HepG2 cells; parameters: endogenous in cells; host or cells: HepG2
Protocol: To investigate the success of the design strategy developed in this work, the effect of the promising candidates 3b and 4c was assessed on AKT-1, a crucial protein, by determining their phosphorylation inhibition rate in HepG2 cells and measuring their biochemical kinase inhibitory activity.
VEGFR-2 phosphorylation was assayed using VEGFR2 Antibody (Phospho-Tyr951) (OAEC00085, AVIVA SYSTEM BIOLOGY), while Akt-1 was assayed by Mouse/Human/Rat Phospho-AKT1 (Ser473) (Cell-Based Phosphorylation ELISA) ELISA Kit-LS-F1447 (LSBio) according to manufacturer’s instructions.

PC-3 cells = assay: MTT antiproliferative assay on PC-3; format: cell-based; details: Homo sapiens, PC-3, MTT assay; mean ± S.D. (n = 3); read-out: Cytotoxicity in IC50, PC-3
Protocol: as §1, §2

[7] = MTT assay on normal nononcogenic cell line WI38; format: cell-based; details: human, WI38 cells (normal nononcogenic cell line); MTT assay; noncancerous cell line; mean ± S.D. (n = 3); read-out: Cytotoxicity in IC50, WI38
Protocol: (§4) The aforementioned results illustrate that compounds 3b and 4c are the most promising cytotoxic agents on both cell lines and will be subjected to a thorough mechanistic study to understand their anticancer activity. However, before doing this, their selective toxicity and, thus, their safety were evaluated by measuring the IC50 values against the normal nononcogenic cell line (Wl38) by an MTT assay as listed in Table 1. […] Compound 3b gave SI of 6, and compound 4c gave SI = 12 showing better selectivity toward cancer cells than doxorubicin with SI = 5.
as §2

WI38 cells = assay: MTT assay on normal nononcogenic cell line WI38; format: cell-based; details: calculated by dividing the IC50 of WI38/PC-3; SI > 2 is considered safe
Protocol: as §4, §2

caspase-3 = assay: Active caspase-3 ELISA in HepG2 cells; format: cell-based, human
Protocol: Apoptosis is known to be carried out through three different pathways: intrinsic, extrinsic, and granzyme pathways. One of the controlling proteins in apoptosis is the cysteine protease named caspase with the chief executer caspase 3 [46, 47]. Accordingly, assessing the effect of 3b and 4c on the active caspase-3 level was done in HepG2 cells taking doxorubicin as the reference drug.
The colorimetric ELISA assay for active caspase-3 detection was carried out utilizing Invitrogen™ Caspase-3 (Cleaved) Human ELISA-Kit (KHO1091, CA, USA) according to the manufacturer’s procedures. ROBONIK P2000 ELISA reader was used at 450 nm, and the standard curve was obtained by plotting the mean absorbance of each standard concentration against human caspase-3 concentrations.

VEGFR-2 [8] = target: T2, VEGFR-2; assay: VEGFR-2 phosphorylation cell-based ELISA in HepG2 cells; details: compounds at their formerly determined IC50
Protocol: VEGFR-2 phosphorylation was assayed using VEGFR2 Antibody (Phospho-Tyr951) (OAEC00085, AVIVA SYSTEM BIOLOGY) [53], while Akt-1 was assayed by Mouse/Human/Rat Phospho-AKT1 (Ser473) (Cell-Based Phosphorylation ELISA) ELISA Kit-LS-F1447 (LSBio) according to manufacturer’s instructions [54].

FAK = test system: FAK; parameters: method as in PMID 20050669, PMID 31923858; details: cited from earlier work
lung, ovarian, CNS cells = test system: lung, ovarian, CNS cells; parameters: method as in PMID 28759878; details: read-out: IC50 range in lung, ovarian, CNS cells; cited from earlier work
HUVEC cells = test system: HUVEC cells; parameters: method as in PMID 33328104; details: cited from earlier work
PC3 cells = test system: PC3 cells; parameters: method as in PMID 33328104; details: cited from earlier work

T1 sequence (P31749 whole entry): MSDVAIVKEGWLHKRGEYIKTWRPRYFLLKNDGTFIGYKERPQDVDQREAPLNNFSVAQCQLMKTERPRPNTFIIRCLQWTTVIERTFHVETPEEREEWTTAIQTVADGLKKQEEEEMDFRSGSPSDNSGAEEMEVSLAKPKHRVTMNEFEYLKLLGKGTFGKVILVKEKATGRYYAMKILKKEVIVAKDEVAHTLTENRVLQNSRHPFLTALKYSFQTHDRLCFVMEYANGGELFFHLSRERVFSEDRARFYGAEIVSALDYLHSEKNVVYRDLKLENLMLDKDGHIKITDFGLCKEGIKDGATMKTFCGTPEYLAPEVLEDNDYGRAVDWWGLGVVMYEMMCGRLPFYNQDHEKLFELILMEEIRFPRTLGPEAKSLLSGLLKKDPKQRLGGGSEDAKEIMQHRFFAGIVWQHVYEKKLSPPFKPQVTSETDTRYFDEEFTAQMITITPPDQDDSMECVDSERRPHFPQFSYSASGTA
T2 sequence (P35968 20-1356): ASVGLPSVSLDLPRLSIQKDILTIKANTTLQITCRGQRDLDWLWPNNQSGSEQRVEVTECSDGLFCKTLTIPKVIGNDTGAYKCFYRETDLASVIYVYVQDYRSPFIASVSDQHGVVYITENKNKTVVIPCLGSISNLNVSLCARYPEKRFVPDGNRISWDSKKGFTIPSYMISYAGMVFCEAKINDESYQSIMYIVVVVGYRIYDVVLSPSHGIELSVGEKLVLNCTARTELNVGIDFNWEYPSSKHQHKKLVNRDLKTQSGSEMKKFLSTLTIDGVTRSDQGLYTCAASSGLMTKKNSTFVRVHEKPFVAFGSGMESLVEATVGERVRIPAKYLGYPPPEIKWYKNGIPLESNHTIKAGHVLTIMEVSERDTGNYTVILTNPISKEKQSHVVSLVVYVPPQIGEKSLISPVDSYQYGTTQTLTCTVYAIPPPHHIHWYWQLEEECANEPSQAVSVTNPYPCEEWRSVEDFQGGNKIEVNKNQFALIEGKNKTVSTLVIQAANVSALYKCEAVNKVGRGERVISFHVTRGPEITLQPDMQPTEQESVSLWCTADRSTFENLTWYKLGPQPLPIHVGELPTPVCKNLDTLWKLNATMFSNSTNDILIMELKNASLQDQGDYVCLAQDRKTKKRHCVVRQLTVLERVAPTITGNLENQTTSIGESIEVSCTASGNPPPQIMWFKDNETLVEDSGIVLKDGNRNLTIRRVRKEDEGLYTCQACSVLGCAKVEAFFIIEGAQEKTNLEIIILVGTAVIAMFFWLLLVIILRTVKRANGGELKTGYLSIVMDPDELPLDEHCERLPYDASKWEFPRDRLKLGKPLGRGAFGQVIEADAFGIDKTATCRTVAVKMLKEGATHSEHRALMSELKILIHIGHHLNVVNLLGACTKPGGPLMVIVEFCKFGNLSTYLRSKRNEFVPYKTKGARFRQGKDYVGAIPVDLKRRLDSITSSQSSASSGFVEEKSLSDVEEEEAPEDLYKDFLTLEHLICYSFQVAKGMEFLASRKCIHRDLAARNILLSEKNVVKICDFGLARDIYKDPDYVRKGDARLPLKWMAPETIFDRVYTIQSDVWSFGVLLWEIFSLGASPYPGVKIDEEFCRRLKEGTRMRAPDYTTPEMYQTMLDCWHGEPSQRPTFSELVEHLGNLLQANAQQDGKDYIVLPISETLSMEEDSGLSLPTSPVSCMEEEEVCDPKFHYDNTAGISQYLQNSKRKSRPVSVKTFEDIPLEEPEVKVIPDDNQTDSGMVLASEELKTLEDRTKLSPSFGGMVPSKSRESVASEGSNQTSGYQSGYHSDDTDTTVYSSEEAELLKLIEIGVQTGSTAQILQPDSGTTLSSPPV

Structure (SMILES): CN1CCc2sc3nc(-c4ccc(Cl)cc4)[nH]c(=O)c3c21 [3b, 2-(4-Chlorophenyl)-5-methyl-3,5,6,7-tetrahydro-4H-pyrrolo[2′,3′:4,5]thieno[2,3-d]pyrimidin-4-one]
- IC50 (HepG2 cells [1]; Homo sapiens, HepG2, MTT assay): 3.1 µM
- IC50 (HepG2 cells [1]; MTT assay): 3.11 ± 0.14 µM
- % Content of DNA, G0:G1 (HepG2 cells [2]): 39.42%
- % Content of DNA, G2:M (HepG2 cells [2]): 4.39%
- % Content of DNA, PreG1 (HepG2 cells [2]): 42.06%
- % Content of DNA, S (HepG2 cells [2]): 56.19%
- Cell cycle comment (phase of arrest) (HepG2 cells [2]): cell growth arrest@ S
- melting point: 168 °C
- IC50 (AKT-1 [3]): 6.96 µM
- IC50 (VEGFR-2 [4]): 0.126 µM
- Increase in early apoptotic cells over untreated cells (HepG2 cells [5]): 5 fold
- Increase in late apoptotic cells over untreated cells (HepG2 cells [5]): 144 fold
- Apoptosis, Total (cells percentage) (HepG2 cells [5]; at IC50): 42.06%
- Apoptosis, Early (cells percentage) (HepG2 cells [5]; at IC50, Q2 in Figure 6): 2.51%
- Apoptosis, Late (cells percentage) (HepG2 cells [5]; at IC50, Q3 in Figure 6): 24.53%
- Necrosis (cells percentage) (HepG2 cells [5]; at IC50, Q4 in Figure 6): 15.02%
- AKT-1 phosphorylation inhibition rate (AKT-1 [6]): 63%
- IC50 (PC-3 cells): 2.15 ± 0.12 µM
- IC50 [7]: 12.5 ± 0.68 µM
- Selectivity Index (SI) (WI38 cells): 6 and 5.79
- Increase in active caspase-3 level over the untreated cells (caspase-3): five-fold
- VEGFR-2 phosphorylation inhibition (VEGFR-2 [8]): 58.3%

Structure (SMILES): COc1ccccc1-c1csc2cnc(Nc3ccc(C(=O)NC4CCNCC4)c(F)c3)nc12 [II]
- IC50 (FAK): 0.0282 µM

Structure (SMILES): COc1ccc(-c2nc3sc4c(c3c(=O)[nH]2)CCCC4)cc1 [III]
- IC50 (lung, ovarian, CNS cells): 0.6 to 1.2 µM

Structure (SMILES): O=C(Nc1ccc(Cl)c(Cl)c1)Nc1nnc(Sc2ncnc3scc(-c4ccncc4)c23)s1 [V]
- Pro-apoptotic effect in HUVEC cells (HUVEC cells): 28.45%
- Pro-apoptotic effect in PC3 cells (PC3 cells): 44%
